# In paper PMC5295395, “Inhibition of PlexA1-mediated brain tumor growth and tumor-associated angiogenesis using a transmembrane domain targeting peptide” (Oncotarget, 2016):
# Legend:
# NRP1 TMD = assay: surface plasmon resonance (SPR, Biacore) with NRP1 TMD; type: binding; conditions: Biacore 2000, 20°C, streptavidin CM5 chip, 10 mM HEPES pH 7.4, 150 mM NaCl, 0.005% P20, 3 mM LDAO, flow 5 μl/min
# Description: A surface plasmon resonance (SPR, Biacore) analysis was also conducted with a synthetic biotinylated PlexA1 peptide immobilized on the chip. […] Due to the high hydrophobic nature and difficulty to produce TMD peptides we only performed this experiment with TMD peptides for which we had experience of successful synthesis. […]
# assigned to the “highest Plxna1” group and conversely (Abcam, ab32960-100) was added to the sections in those with a Plxna1 expression below the median to the blocking solution at 4°C overnight at a dilution of 1/100.
# “lowest Plxna1” group. […]
# For the “TCGA dataset” [50, 51], data were The tissue was rinsed with PBS (3 × 5 minutes) and downloaded from the TCGA data portal (https://tcga- then the endogenous peroxidases were blocked with 1% data.nci.nih.gov/tcga/tcgaHome2.jsp; NCI, USA). RMA H2O2 solution (Sigma, #H1009) in methanol solution normalized gene expression profiles measured with during 20 minutes. […]
# Factor (recombinant human) 0.1 ng/ml, Basic Fibroblast RNA was treated with DNase I (Invitrogen) and reverse Growth Factor (recombinant human) 1 ng/ml, Heparin 90 transcribed using the High Capacity cDNA RT Kit μg/ml, Hydrocortisone 1 μg / ml. […] Samples were analyzed using […]
# VEGFR-2 phosphorylation = assay: ELISA of VEGFR-2 phosphorylation in HUVEC cells; type: cell-based, human; conditions: VEGF 100 ng/ml
# Description: (C) Rac-1 activation assay in resting condition and after Sema3A-induced Rac-1 activation in U373 MG cells. (D) Western blot analysis of phosphorylated Akt, total Akt and tubulin in U373MG cells treated with the vehicle (LDS 72 μM), Sema3A (100 ng/ml) or Sema3A + MTP-PlexA1 (10^−7 M). The lower panel is showing the quantification of the p-Akt/Akt ratio in the different conditions. (E) MTP-PlexA1 decreases VEGFR-2 phosphorylation induced by VEGF (100 ng/ml) in HUVEC cells.
# PlexA1 is a Rho-GTPase activating protein. Consistently, it has been shown that in response to Sema3A, the Rho-GTPase Rac1 is activated and sequestered at the plasma membrane. […] Moreover, it has been shown that Sema3A inhibits Akt phosphorylation through binding of Rnd1 to PlexA1. […] From these experiments we concluded that MTP-PlexA1 is able to antagonize major signaling pathways of PlexA1 receptor.
sequence,measurement,setting,value
"TLPAIVGIGGGGGLLLLVIVAVLIAYKRK [MTP-PlexA1, synthetic transmembrane peptide mimicking the TMD of PlexA1]",interaction of immobilized biotinylated PlexA1 TMD peptide with NRP1,NRP1 TMD,significantly interacted with NRP1
same,change of VEGF-induced phosphorylation of VEGFR-2,VEGFR-2 phosphorylation,−26%
